Data taken from patent US20260000781A1, “FC CONJUGATES INCLUDING AN INHIBITOR OF CD73 AND USES THEREOF” (Cidara Therapeutics, Inc., priority 2022, published 2026).

Legend:
human T cells = experiment: Rescue of T cell activation in the presence of AMP; format: cell-based; conditions: CD25, 72 h
Description: Human T cells (cat. no. 72400, Stem Cell Tech) were activated with anti-CD3/CD28/CD2 T cell activator (cat. no. 10970, Stem Cell Technologies) and seeded at 1×10^5 cells/well in ImmunoCult™—XF T Cell Expansion medium into 96-well tissue culture-treated plates. Test articles were added at concentrations ranging from 1 to 10,000 nM. Next, adenosine 5′-monophosphate (AMP; cat. no 01930, Sigma) was added at 30 μM or 100 μM. Cells, test articles and AMP were incubated at 37° C., 5% CO2 for 72 h. After 72 h, cell supernatant was removed, and T cells were washed in staining buffer prior to staining for CD25 with anti-human CD25 PE antibody (cat. no 60153PE, Stem Cell Technologies, clone 2A3). After staining, cells were washed in staining buffer. 10,000 events were collected on flow cytometer Northern Lights (Cytek). Percent rescue versus concentration were plotted using GraphPad Prism Version 8 and EC50's calculated using nonlinear regression analysis ([inhibitor]vs normalized response).

[1] = system: colon tumor cell line CT26; experiment: Syngeneic mouse tumor efficacy model with colon tumor cell line CT26; format: in vivo; conditions: CT26, Day 10, 210 mg/kg/wk (30 mg/kg IP daily)
Description: Tumor efficacy models were conducted in female BALB/c mice (Charles River; 18-22 g) injected with the colon tumor cell line CT26 (ATCC; CRL-2638). Briefly, CT26 cells freshly prepared and resuspended in PBS were injected SC into the shaved right flank of mice. Tumors were allowed to grow until they became measurable (˜50 mm^3) (typically after 7-10 days of growth). Mice were then randomized so each starting group had approximately the same tumor group average (typical+/−5 mm^3) and treatment initiated. Each group consisted of 10 animals. Conjugate 133a was dosed at 20 mg/kg via intraperitoneal (IP) injection on MWF, for 2 weeks. […] The study also included a vehicle (PBS) only treatment group with the aforementioned schedule. After initiation of treatment tumors were measured 3×/week with tumor volumes calculated based on the following formula: (width×width×length)/2. All tumors were monitored until the maximum allowed volume was reached (=>2,000 mm^3).
Tumor efficacy models were conducted in female BALB/c mice (Charles River; 18-22 g) injected with the colon tumor cell line CT26 (ATCC; CRL-2638). […] After initiation of treatment tumors were measured 3×/week with tumor volumes calculated based on the following formula: (width×width×length)/2. All tumors were monitored until the maximum allowed volume was reached (=>2,000 mm^3). […]

[2] = system: breast tumor cell line EMT-6; experiment: Syngeneic mouse tumor efficacy model with breast tumor cell line EMT-6; format: in vivo; conditions: EMT-6, IP
Description: Tumor efficacy models were conducted in female BALB/c mice (Charles River laboratories; 18-22 g) injected with the breast tumor cell line EMT-6 (ATCC; CRL-2755). Briefly, EMT-6 cells propagated and prepared by standard methods were resuspended in PBS and injected subcutaneously (in a 100 μL volume) into the shaved right flank of mice. Five days after cell injection, and prior to measurable tumor formation, treatment was initiated via IP injection (10 mL/kg) of test articles or controls. […] The test article was Conjugate 172a dosed at 30 mg/kg twice weekly, for 3 weeks. The final group consisted of mice dosed with both the anti-PD-1 mAb and Conjugate 172a at 30 mg/kg using the respective dosing schedules for each.
Each group consisted of 15 animals and tumors were measured 3× weekly with calipers on Mon/Wed/Fri. Tumor volumes were calculated based on the following formula: [(width×width×length)/2]. All tumors were monitored until the maximum allowed volume was reached (=>2,000 mm^3).
Although occasionally an animal would be removed from study if the tumor grew internally causing undo stress to the animal, or the inability to measure the tumor accurately. Data was analyzed and graphed with Graphpad Prism 6.00. Where conducted, statistical evaluation used the Mann-Whitney variation of the t-test. […]

Structure (SMILES)	EC50 (human T cells; 30 μM AMP)	EC50 (human T cells; 100 μM AMP)	reduction in tumor volume compared to the vehicle group [1]	% Complete regression (Day 36) ([2]; 15 animals per group, regimens as for % tumor reduction)	% Tumor reduction (Day 22) ([2]; Conjugate 172a 30 mg/kg twice weekly for 3 weeks, AB680 30 mg/kg daily, anti-PD-1 mAb on Day 0, 2, 4, 7, 9, 12)
COC[C@](CO)(OC[C@H]1O[C@@H](n2ncc3c(NC4CCCC4)nc(Cl)nc32)[C@H](O)[C@@H]1O)P(=O)(O)O [OP5244]	2.88 nM	8.37 nM			
C[C@H](Nc1cc(Cl)nc2c1cnn2[C@@H]1O[C@H](COP(=O)(O)CP(=O)(O)O)[C@@H](O)[C@H]1O)c1ccccc1F [AB680]			50.7%	6.7%	0%
